Each structure is given as a SMILES string. Read-outs that look alike come from different tables or passages of the source.

The subject of data set [1] is Rat Hepatocytes. Description: Hepatic intracellular concentration (ICC) in rat hepatocytes, observed vs predicted. Format: in vitro ADME. The following applies: for Observed ICC (uM) BSA: one-step method with BSA. From the text: The hepatic intracellular concentration (ICC) of a compound, which reflects the balance of the uptake, metabolism, and efflux out of the cell, can also be determined in the absence and presence of protein.

Data set [2] deals with sandwich-cultured rat hepatocytes. Description: Intrinsic biliary clearance in sandwich-cultured rat hepatocytes. The following applies: for Observed Cl (ml/min/Kg) BSA: measured in the presence of BSA. From the text: Representative calculations that can be employed in accordance with the presently disclosed subject matter include the calculations of a biliary excretion index and a biliary clearance value. […] In some embodiments, the BEI is a calculation of the uptake and excretion of the candidate compound as follows: 100%×{(uptake in the culture with intact bile canaliculi minus uptake within hepatocytes only in the Ca^2+-free culture) divided by (uptake in the culture with intact bile canaliculi)}. In some embodiments, the biliary clearance calculation is performed as follows: (uptake in the culture with intact bile canaliculi minus uptake within hepatocytes only in the Ca^2+-free culture) divided by (time of incubation multiplied by the concentration of the candidate compound in the buffer medium). In some embodiments, a biliary clearance value can be calculated as the ratio of the mass in the bile canaliculi and the area under the curve (AUC) in culture medium, wherein the AUC represents the integral of candidate compound in the medium from time 0 to time T (time can be measure in any desired units, and is usually measured in minutes). Indeed, the term AUC can refer to the following equation: […]
The data for each compound was determined in sandwich-cultured rat hepatocytes at a concentration of 1 μM and an exposure time of 10 minutes in buffer (no protein), in buffer with 4% BSA, or in rat serum.
This latter method is the current industry standard.

Data set [3] in a line: Free fraction by equilibrium dialysis in serum. Format: in vitro ADME. The following applies: DPDPE line: 1 uM; for fraction unbound: serum. (In general: Equilibrium dialysis compares concentrations on both sides of a semipermeable membrane.)
Excerpt: (§5) The free fraction is the amount of compound that is considered thermodynamically free in solution compared to the amount which is considered to be thermodynamically bound to the albumin proteins.
For data set [4], the target named is 4% BSA (Bos taurus, UniProt P02769). The data set can be described thus: Free fraction by equilibrium dialysis in 4% BSA. Format: in vitro ADME. The following applies: bovine, DPDPE line: 1 uM.
Excerpt: as §5
For data set [5], the system named is human hepatocytes. The data set can be described thus: Intracellular concentration in human hepatocytes in the presence of albumin protein. The class given is in vitro ADME. From the text: The observed effects of protein on the intracellular concentration, could lead to an over- or under-prediction of a compound's effect, drastically changing the expected clinical outcome. […] However, the intracellular concentrations never achieved high enough levels to result in hepatotoxic effects. […] Since the effect of protein was unanticipated and not predictable, it is desirable to expose the cell to protein during the experiment.

The conditions of data set [6]: cited from earlier work.
The test system of data set [7] is CYP3A4. As to the method: (§1) Sandwich-Cultured Hepatocytes (SCH) were prepared using freshly isolated hepatocytes or cryopreserved hepatocytes. Freshly isolated hepatocytes were plated on 24-well cell culture plates, rinsed and fed with the appropriate species specific Qualyst Transporter Solutions (QTS, Durham, North Carolina, United States of America) propriety culture medium (QualGro™). Cells were maintained in the appropriate species specific medium until consumed in studies.
(§2) Cryopreserved hepatocytes were thawed following manufacturer's thawing instructions. Cryopreserved hepatocytes were subsequently suspended in QTS propriety hepatocyte seeding medium (QualGro™ Seeding Medium) at a density of 0.7-0.8 million viable cells/mL onto BioCoat® 24-well cell culture plates. Following plating, cells were allowed to attach for 2-4 hours, rinsed and fed with warm (37° C.) seeding medium. Eighteen to 24 hours later, cells were fed and overlaid with the appropriate species specific QTS propriety culture medium (QualGro™) supplemented with extracellular matrix (ECM), Matrigel® (0.25 mg/mL). Cells were maintained in QualGro™ Hepatocyte Culture Medium until consumed in studies.
(§3) Cells were cultured as described above through day 6 of culture. On day 7 of culture, spent culture medium was aspirated and replaced with HBSS incubation solution with or without 4% bovine serum albumin (BSA). […] In situ incubations were performed in cell culture incubators (37° C.; 5% CO2; 100% humidity) shaking at 120 rpm for 20-30 minutes. Following the incubation period, incubation solutions were collected and stored at −80° C. until processed for bioanalysis.
(§4) In situ incubations were analyzed for the detection of P450 mediated metabolite formation of hydroxymidazolam from midazolam and hydroxyibuprofen from ibuprofen. Briefly, a volume of 300 μL of internal standard solution (methanol containing 25 nM triazolam and d3-ibuprofen) and a volume of 100 μL of HBSS or HBSS plus 4% BSA were added to a protein precipitation plate (Millipore MDRPNP4; EDM Millipore, Billerica, Massachusetts, United States of America) stacked on a 96 deep well block. The plate was allowed to shake for 1 to 2 minutes prior to centrifugation for collection of the filtered supernatant. The sample filtrate was evaporated to dryness and the samples were reconstituted in 200 μL sample diluent, 40/60 methanol/10 mM ammonium acetate and mixed for at least 20 min on a plate shaker. The reconstituted samples were transferred to a Millipore 0.45 μm filter plate (Millipore MSHVN45) and filtered into a Costar 3957 plate by centrifugation and sealed with a silicone capmat prior to LC-MS/MS analysis.

The target of data set [8] is CYP2C9 (Homo sapiens, UniProt P11712). The method, then:
as §1, §2, §3, §4

Setting [9] is: HBSS value adjusted with free fraction, DPDPE 10 uM.
[10] abbreviates: absence of protein (HBSS), adjusted with free fraction of Table 1, 1 μM.

Chain of 4% BSA (P02769 25-607): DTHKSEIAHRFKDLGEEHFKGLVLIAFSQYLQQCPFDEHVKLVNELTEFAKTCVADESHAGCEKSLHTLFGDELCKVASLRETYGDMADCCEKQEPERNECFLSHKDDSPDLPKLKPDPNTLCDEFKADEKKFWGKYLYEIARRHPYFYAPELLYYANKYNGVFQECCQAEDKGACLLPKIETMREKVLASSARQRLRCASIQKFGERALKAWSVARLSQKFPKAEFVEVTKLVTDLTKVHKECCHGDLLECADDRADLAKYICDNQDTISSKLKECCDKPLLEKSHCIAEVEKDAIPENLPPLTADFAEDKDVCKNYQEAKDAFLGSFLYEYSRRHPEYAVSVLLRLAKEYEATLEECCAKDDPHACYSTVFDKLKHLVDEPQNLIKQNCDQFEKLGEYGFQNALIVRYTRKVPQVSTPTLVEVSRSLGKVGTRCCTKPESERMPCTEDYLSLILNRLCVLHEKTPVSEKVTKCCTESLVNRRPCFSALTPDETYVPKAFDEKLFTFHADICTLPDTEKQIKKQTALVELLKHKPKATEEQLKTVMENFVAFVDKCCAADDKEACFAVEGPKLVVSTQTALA
Chain of CYP2C9 (P11712 whole entry): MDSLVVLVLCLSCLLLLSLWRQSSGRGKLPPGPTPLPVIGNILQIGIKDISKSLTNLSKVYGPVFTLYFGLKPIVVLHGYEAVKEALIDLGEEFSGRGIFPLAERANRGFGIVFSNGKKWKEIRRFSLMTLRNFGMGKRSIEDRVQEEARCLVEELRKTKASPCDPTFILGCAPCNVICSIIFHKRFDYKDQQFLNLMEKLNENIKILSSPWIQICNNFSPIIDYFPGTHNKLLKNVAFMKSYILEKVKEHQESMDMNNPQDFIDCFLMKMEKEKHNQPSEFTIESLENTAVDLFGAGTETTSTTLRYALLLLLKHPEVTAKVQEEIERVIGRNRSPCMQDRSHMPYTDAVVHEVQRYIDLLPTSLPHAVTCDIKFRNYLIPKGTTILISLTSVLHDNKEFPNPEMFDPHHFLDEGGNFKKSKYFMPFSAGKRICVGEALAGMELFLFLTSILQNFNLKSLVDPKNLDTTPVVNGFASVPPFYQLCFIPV

Turning to `CC1(C)SSC(C)(C)[C@@H](NC(=O)[C@@H](N)Cc2ccc(O)cc2)C(=O)NCC(=O)N[C@@H](Cc2ccccc2)C(=O)N[C@H]1C(=O)O` [DPDPE], the “Predicted ICC (uM) HBSS” value in data set [1] (setting [9]) is 13.63 µM; in data set [1] (setting [10]), 1.42 µM. Moreover, the “Observed ICC (uM) BSA” value in data set [1] (1 μM) is 1.98 µM; in data set [1] (DPDPE 10 uM) it was 15.51 µM. In addition, the “Predicted Cl (ml/min/Kg) HBSS” value is 4.24 mL/min/kg in data set [2] (setting [9]) and 5.69 mL/min/kg in data set [2] (measured in absence of protein (HBSS), adjusted with free fraction of Table 1, 1 μM). Further, the “Observed Cl (ml/min/Kg) BSA” value in data set [2] (1 μM) came out at 2.51 mL/min/kg; in data set [2] (DPDPE 10 uM), 3.32 mL/min/kg. Besides, the “Predicted biliary clearance compared with observed biliary clearance” value in data set [2] (two-step prediction vs measurement with BSA, DPDPE at 1 μM) is “over-estimated”.
As usually defined, the fraction unbound is the share of the substance not bound to proteins or other matrix. A low value points to extensive binding. In the case of `CC[C@H](C)C(=O)O[C@H]1C[C@H](O)C=C2C=C[C@H](C)[C@H](CC[C@@H](O)C[C@@H](O)CC(=O)O)[C@H]21` [Pravastatin], the figures for the fraction unbound in data set [3] and in data set [4] were 0.554 and 0.734, respectively. In data set [2], this molecule displayed an Intrinsic Biliary Clearance, BSA of 6.47 mL/min/kg. Moreover, the Intrinsic Biliary Clearance, No Protein in data set [2] (rat) was determined as 7.35 mL/min/kg. Besides, the “Predicted Cl (ml/min/Kg) HBSS” value in data set [2] (rat, 10 min, 1 μM) was 5.39 mL/min/kg. Also, the “Intrinsic Biliary Clearance, Serum” value in data set [2] (rat) is recorded as 2.06.
In data set [4], `CC(C)c1nc(N(C)S(C)(=O)=O)nc(-c2ccc(F)cc2)c1/C=C/[C@@H](O)C[C@@H](O)CC(=O)O` [Rosuvastatin] gave a free fraction (fraction unbound) of 0.136. Moreover, in data set [1] (setting [10]), the “Predicted ICC (uM) HBSS” value is 3.09 µM. The “Observed ICC (uM) BSA” value in data set [1] (1 μM) is 6.81 µM. In addition, in data set [2], the Intrinsic Biliary Clearance, BSA was found to be 164 mL/min/kg and the “Predicted biliary clearance compared with observed biliary clearance” value is reported as “under-estimated by a significant amount”. Moreover, the Intrinsic Biliary Clearance, No Protein in data set [2] (rat) is 53.1 mL/min/kg. In addition, the “Predicted Cl (ml/min/Kg) HBSS” value in data set [2] (rat, 10 min, 1 μM) was 7.22 mL/min/kg.
Molecule `CN(Cc1cnc2nc(N)nc(N)c2n1)c1ccc(C(=O)N[C@@H](CCC(=O)O)C(=O)O)cc1` [Methotrexate] gave a fraction unbound in data set [3] of 0.499. Besides, in data set [4], the fraction unbound came out at 0.428. Also, the “Predicted ICC (uM) HBSS” value in data set [1] (setting [10]) is 0.48 µM. The “Observed ICC (uM) BSA” value in data set [1] (1 μM) was 0.47 µM. In data set [2], the Intrinsic Biliary Clearance, BSA is 0.19 mL/min/kg. Besides, in data set [2] (rat), the Intrinsic Biliary Clearance, No Protein is 0.54 mL/min/kg and the “Intrinsic Biliary Clearance, Serum” value is recorded as 0.91. Further, the “Predicted Cl (ml/min/Kg) HBSS” value in data set [2] (rat, 10 min, 1 μM) is 0.23 mL/min/kg.
Consider `CCCc1nc2c(C)cc(-c3nc4ccccc4n3C)cc2n1Cc1ccc(-c2ccccc2C(=O)O)cc1` [telmisartan], for which the “Intracellular concentration in presence of protein greater than predicted from protein-free data adjusted by free fraction” value in data set [5] was 100 ×. Further, the “Toxicity associated with its use (in vivo data)” value in data set [6] is “no known toxicity”.
Turning to `CCCCC(=O)N(Cc1ccc(-c2ccccc2-c2nnn[nH]2)cc1)[C@H](C(=O)O)C(C)C` [Valsartan], in data set [3], the fraction unbound was determined as 0.004. This molecule also had a fraction unbound in data set [4] of 0.075. In addition, the “Predicted ICC (uM) HBSS” value in data set [1] (setting [10]) is 0.44 µM. The “Observed ICC (uM) BSA” value in data set [1] (1 μM) was 0.22 µM. This molecule showed an Intrinsic Biliary Clearance, BSA in data set [2] of 3.06 mL/min/kg. Besides, in data set [2] (rat), the Intrinsic Biliary Clearance, No Protein came out at 4.73 mL/min/kg and the “Intrinsic Biliary Clearance, Serum” value amounted to 1.39. The “Predicted Cl (ml/min/Kg) HBSS” value in data set [2] (rat, 10 min, 1 μM) was 0.36 mL/min/kg.
In the case of `C[C@H]1O[C@@H](O[C@H]2[C@@H](O)C[C@H](O[C@H]3[C@@H](O)C[C@H](O[C@H]4CC[C@@]5(C)[C@H](CC[C@@H]6[C@@H]5C[C@@H](O)[C@]5(C)[C@@H](C7=CC(=O)OC7)CC[C@]65O)C4)O[C@@H]3C)O[C@@H]2C)C[C@H](O)[C@@H]1O` [Digoxin], in data set [3], the “Free Fraction in Serum” value is 0.727. This molecule also had an unbound share (fraction unbound) in data set [4] of 0.852. Besides, the “Predicted ICC (uM) HBSS” value in data set [1] (setting [10]) was 1.59 µM. In addition, the “Observed ICC (uM) BSA” value in data set [1] (1 μM) was 1.29 µM. In addition, in data set [2], the Intrinsic Biliary Clearance, BSA is 9.25 mL/min/kg. Besides, in data set [2] (rat), the Intrinsic Biliary Clearance, No Protein came out at 10.4 mL/min/kg and the “Intrinsic Biliary Clearance, Serum” value came to 5.12. The “Predicted Cl (ml/min/Kg) HBSS” value in data set [2] (rat, 10 min, 1 μM) is 8.85 mL/min/kg.
Consider `CC(=O)N1CCN(c2ccc(OCC3COC(Cn4ccnc4)(c4ccc(Cl)cc4Cl)O3)cc2)CC1` (stereo not drawn) [Ketoconazole], for which the “CYP3A4/5 Mean % Remaining” value in data set [7] (4% BSA, inhibitor 0.0500 μM) is listed as 54.6%; in data set [7] (4% BSA, inhibitor 0.250 μM), 40.8%; in data set [7] (No BSA, inhibitor 0.050 μM), 45.1%; in data set [7] (No BSA, inhibitor 0.250 μM), 24.4%.
As for `O=C(O)C[C@H](O)C[C@H](O)/C=C/c1c(C2CC2)nc2ccccc2c1-c1ccc(F)cc1` [Pitavastatin], in data set [3], the fraction unbound worked out at 0.004. Further, the fraction unbound in data set [4] was 0.047. For the same molecule, in data set [2], the Intrinsic Biliary Clearance, BSA was found to be 140 mL/min/kg and the “Predicted biliary clearance compared with observed biliary clearance” value is on record as “under-estimated by a significant amount”. Further, in data set [2] (rat), the Intrinsic Biliary Clearance, No Protein was 52 mL/min/kg and the “Intrinsic Biliary Clearance, Serum” value stood at 277.50. Moreover, the “Predicted Cl (ml/min/Kg) HBSS” value in data set [2] (rat, 10 min, 1 μM) was 2.44 mL/min/kg.
As to `OC(Cn1cncn1)(Cn1cncn1)c1ccc(F)cc1F` [Fluconazole], the “CYP2C9 enzyme activity reduced to % of control” value in data set [8] is recorded as 24.4-45.1 % of control.

The record behind these values is patent US12650422B2, “Utility of protein in the prediction of in vivo effects” (Qualyst Transporter Solutions, LLC, priority 2014, dated 2026).
